The record followed here is patent publication US20220356494A1, “METHODS AND COMPOSITIONS FOR TREATING CANCER” (Engine Biosciences Pte. Ltd., priority 2019, published 2022).

For one assay, the system named is cancer cell lines. Nature of the assay: Cellular IC50 (GI50) of RON inhibitors with or without Dasatinib in cancer cell lines. Format: cell-based. The conditions noted are these: all tested cell lines; co-administered with Dasatinib. From the text:
FIGS. 12A-12C show additional example data of a small molecule approach to inhibit SRC and RON in cancer cells. As described herein, one approach to validate the CombiGEM results (dual SRC and RON knockout using Cas and DNA constructs) can include using small molecule inhibitors to reduce function of SRC or RON. […] FIG. 12B and FIG. 12C show plots of GI50 as a function of treatment with RON inhibitors Foretinib or a Met/Ron inhibitor, respectively, co-administered with Dasatinib.

For the next assay, the target named is cMet (Homo sapiens, UniProt P08581). Put plainly: cMet inhibition (percent activity vs log concentration).
In assay [1] the target is T1, RON (Homo sapiens, UniProt Q04912). Put plainly: RON inhibition (percent activity vs log concentration).
From the text: (§1) The plot indicates percent activity of RON or cMet as a function of the log concentration of the compound (in moles, M). From the plot, the IC50 values may be obtained.
Another assay relates to MDA-MB-231 cells. Nature of the assay: MDA-MB-231 cell viability as a function of SU-6656 concentration, with or without Dasatinib co-treatment. The class given is cell-based. The conditions noted are these: Homo sapiens, MDA-MB-231, MDA-MB-231, read-out: concentration of SU-6656 at 50% viability. As to the method: An additional approach to validate the CombiGEM results (dual SRC and YES knockout using Cas and DNA constructs) can include using small molecule inhibitors to reduce the function of SRC or YES. […] One group of cells is treated with only the YES inhibitor and the vehicle control (DMSO only). Two groups of cells are co-treated with Dasatinib, a SRC inhibitor, at a concentration of 500 nM or 1 μM. The control group (DMSO only, no Dasatinib) has a 50% viability at a concentration of 68.6 μM of SU-6656, compared to 20.4 μM for the cells co-treated with 500 nM Dasatinib and 12.7 μM for the cells co-treated with 1 μM Dasatinib.

The target in assay [2] is T1, RON. Put plainly: RON dissociation constant (Kd). Format: binding. The text has this:
The four compounds “ENG-009”, “ENG-015”, “ENG-018”, and“ENG-035” are shown, along with their Ron and cMet inhibitory activities.

A further assay concerns 506 cell lines. Put plainly: Sensitivity of 506 cell lines to Dasatinib. The conditions noted are these: FIG. 10. The class given is cell-based. The text has this:
The bar plot indicates the effect of various SRC inhibitors, YES inhibitors, or dual SRC/YES inhibitors on the sensitivity of the cells to inhibition; along with an inhibitor for an unrelated/control kinase WEE1. Each bar represents a different type of inhibitor, which may inhibit SRC, YES, SRC and YES, or WEE1. Bars 1-2 from the left of the plot indicate cells are most sensitive to inhibition when SRC and YES are both inhibited. Bars 3-6 from the left of the plot indicate sensitivity to inhibition for cells treated with SRC inhibitors. Bar 7 from the left of the plot indicates sensitivity to inhibition for cells treated with WEE1 inhibitor. […] from the left of the plot also indicate sensitivity to inhibition for cells treated with SRC inhibitors. Bar 9 from the left of the plot indicates sensitivity to inhibition for cells treated with YES1 inhibitor. Bar 10 from the left of the plot indicates sensitivity to inhibition for cells treated with WEE1 inhibitor. Increased sensitivity to inhibition is observed in SRC and YES dual inhibition, compared to SRC-only inhibition or YES-only inhibition. In FIG. 10, 506 cell lines are compared for sensitivity to Dasatinib (SRC and YES inhibitor). 119 of the 506 cell lines are more sensitive to Dasatinib than MDA-MB-231 cells. […] Cell lines that are sensitive to Dasatinib are more sensitive to other dual inhibitors of YES and SRC.

Assay [3] concerns MDA-MB-231 tumor xenografts. Nature of the assay: MDA-MB-231 tumor xenograft, tumor volume.

The structures appear in SMILES notation. Where two headings read alike, the source gives them in different places.

cMet, sequence (P08581 25-1390): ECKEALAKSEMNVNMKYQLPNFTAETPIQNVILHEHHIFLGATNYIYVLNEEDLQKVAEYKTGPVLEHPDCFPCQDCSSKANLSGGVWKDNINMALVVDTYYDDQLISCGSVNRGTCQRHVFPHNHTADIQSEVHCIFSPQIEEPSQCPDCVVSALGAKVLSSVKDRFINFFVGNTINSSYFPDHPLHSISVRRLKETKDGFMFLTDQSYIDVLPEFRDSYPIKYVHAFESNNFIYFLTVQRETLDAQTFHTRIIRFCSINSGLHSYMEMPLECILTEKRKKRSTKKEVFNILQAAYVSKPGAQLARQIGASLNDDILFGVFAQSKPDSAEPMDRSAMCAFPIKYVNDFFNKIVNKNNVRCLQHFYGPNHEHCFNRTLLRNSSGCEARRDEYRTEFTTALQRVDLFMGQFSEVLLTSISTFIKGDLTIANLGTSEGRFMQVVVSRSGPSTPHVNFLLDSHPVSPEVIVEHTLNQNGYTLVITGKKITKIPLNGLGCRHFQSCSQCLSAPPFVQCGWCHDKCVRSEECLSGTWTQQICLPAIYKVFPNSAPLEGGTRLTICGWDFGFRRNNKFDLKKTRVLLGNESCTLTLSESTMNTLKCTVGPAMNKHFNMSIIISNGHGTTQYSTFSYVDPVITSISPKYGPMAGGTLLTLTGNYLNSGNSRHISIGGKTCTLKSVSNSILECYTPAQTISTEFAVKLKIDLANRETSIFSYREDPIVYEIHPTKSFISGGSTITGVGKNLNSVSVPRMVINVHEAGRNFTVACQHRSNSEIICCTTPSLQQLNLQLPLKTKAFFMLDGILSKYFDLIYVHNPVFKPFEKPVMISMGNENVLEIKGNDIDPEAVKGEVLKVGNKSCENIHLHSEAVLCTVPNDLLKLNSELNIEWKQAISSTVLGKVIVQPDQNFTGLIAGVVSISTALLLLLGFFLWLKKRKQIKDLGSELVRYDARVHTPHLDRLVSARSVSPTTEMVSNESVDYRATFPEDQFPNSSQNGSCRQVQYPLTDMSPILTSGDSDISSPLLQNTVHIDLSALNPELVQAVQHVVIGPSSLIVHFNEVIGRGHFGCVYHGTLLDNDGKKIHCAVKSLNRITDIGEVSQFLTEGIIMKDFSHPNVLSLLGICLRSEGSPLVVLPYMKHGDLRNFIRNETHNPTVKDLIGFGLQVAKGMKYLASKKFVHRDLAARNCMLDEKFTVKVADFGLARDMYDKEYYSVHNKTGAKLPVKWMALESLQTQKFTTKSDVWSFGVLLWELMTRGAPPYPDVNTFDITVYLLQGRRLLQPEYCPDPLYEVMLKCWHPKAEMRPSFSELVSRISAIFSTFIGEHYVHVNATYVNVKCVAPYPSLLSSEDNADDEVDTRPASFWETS
T1 sequence (Q04912 25-1400): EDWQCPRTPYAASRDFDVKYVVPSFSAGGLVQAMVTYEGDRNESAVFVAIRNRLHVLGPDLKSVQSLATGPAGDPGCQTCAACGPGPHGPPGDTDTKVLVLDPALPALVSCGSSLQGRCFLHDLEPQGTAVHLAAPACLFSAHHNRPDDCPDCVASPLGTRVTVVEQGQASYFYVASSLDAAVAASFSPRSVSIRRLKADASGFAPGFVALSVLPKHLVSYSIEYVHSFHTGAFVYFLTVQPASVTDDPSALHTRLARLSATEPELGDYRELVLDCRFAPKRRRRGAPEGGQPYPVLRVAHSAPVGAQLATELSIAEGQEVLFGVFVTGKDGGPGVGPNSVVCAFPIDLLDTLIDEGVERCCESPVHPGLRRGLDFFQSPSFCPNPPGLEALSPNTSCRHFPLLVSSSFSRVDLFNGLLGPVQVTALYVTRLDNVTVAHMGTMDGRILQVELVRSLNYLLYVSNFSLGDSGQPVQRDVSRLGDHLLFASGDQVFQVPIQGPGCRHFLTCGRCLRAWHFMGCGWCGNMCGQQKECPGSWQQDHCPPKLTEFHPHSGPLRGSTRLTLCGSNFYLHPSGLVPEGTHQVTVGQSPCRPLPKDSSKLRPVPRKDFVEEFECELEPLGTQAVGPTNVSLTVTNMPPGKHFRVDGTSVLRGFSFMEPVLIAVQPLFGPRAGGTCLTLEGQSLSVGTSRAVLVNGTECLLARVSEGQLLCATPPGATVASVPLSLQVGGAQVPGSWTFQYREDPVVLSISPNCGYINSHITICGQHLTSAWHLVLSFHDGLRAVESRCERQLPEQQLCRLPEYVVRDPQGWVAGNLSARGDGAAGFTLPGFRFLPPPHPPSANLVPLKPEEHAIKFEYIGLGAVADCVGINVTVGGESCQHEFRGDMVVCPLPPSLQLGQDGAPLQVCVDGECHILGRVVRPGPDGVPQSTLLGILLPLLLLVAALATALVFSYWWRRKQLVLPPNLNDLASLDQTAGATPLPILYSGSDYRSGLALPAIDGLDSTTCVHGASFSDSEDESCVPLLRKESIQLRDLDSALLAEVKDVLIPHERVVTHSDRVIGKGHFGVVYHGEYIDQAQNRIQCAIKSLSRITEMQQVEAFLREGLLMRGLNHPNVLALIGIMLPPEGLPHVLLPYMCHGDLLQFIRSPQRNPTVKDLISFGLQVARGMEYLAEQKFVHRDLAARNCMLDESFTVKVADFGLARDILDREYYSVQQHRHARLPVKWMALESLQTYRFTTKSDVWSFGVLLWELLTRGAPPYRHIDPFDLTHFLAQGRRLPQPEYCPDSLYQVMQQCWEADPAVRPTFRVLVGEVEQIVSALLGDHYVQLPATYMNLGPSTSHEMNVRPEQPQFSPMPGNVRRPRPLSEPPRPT
From the text for cMet: as §1

On to `COc1cc2c(Oc3ccc(NC(=O)C4(C(=O)Nc5ccc(F)cc5)CC4)cc3F)ccnc2cc1OCCCN1CCOCC1` [Foretinib, N1′-[3-fluoro-4-[[6-methoxy-7-(3-morpholinopropoxy)-4-quinolyl]oxy]phenyl]-N1-(4-fluorophenyl)cyclopropane-1,1-dicarboxamide], for which, in the assay on cancer cell lines, the “potency (GI50) of RON inhibitor in the presence of Dasatinib vs its absence (DMSO)” value is given as “potency (lower GI50) is greater for the RON inhibitor in the presence of Dasatinib than in its absence”.

With `Cn1cnc(-c2nc3c(Oc4ccc(NC(=O)c5cnn(-c6ccccc6)c5C(F)(F)F)cc4F)ncnc3s2)c1` [ENG-009, N-(3-fluoro-4-((2-(1-methyl-1H-imidazol-4-yl)thiazolo[5,4-d]pyrimidin-7-yl)oxy)phenyl)-1-phenyl-5-(trifluoromethyl)-1H-pyrazole-4-carboxamide], the “cMet inhibition (in words)” value on cMet is “inactive”. At RON [1], this compound registered an IC50 of 222 to 291 nM.

Regarding `CCN1CCN(CCCOc2cc3nccc(Oc4c(F)cc(NC(=O)NN5C(=O)CSC5c5c(F)cccc5F)cc4F)c3cc2OC)CC1` (stereo not shown) [ENG-013, 1-(2-(2,6-difluorophenyl)-4-oxothiazolidin-3-yl)-3-(4-((7-(3-(4-ethylpiperazin-1-yl)propoxy)-6-methoxyquinolin-4-yl)oxy)-3,5-difluorophenyl)urea], on RON [1], the IC50 was 1.6 nM and the “selectivity for RON over cMet (cMet IC50/RON IC50)” value (“selectivity … (cMet IC50/RON IC50)” below) is “approximately 10 fold”.

For `Cn1cnc(-c2ccc3c(Oc4ccc(NC(=O)c5cnn(-c6ccccc6)c5C(F)(F)F)cc4F)n[nH]c3c2)c1` [ENG-018, N-(3-fluoro-4-((6-(1-methyl-1H-imidazol-4-yl)-1H-indazol-3-yl)oxy)phenyl)-1-phenyl-5-(trifluoromethyl)-1H-pyrazole-4-carboxamide], on cMet, the “cMet inhibition (in words)” value is “relatively inactive”. Further, the “RON inhibition (in words)” value at RON [1] is “relatively inactive”.

Turning to `CN(C)S(=O)(=O)c1ccc2c(c1)/C(=C/c1cc3c([nH]1)CCCC3)C(=O)N2` [SU-6656, (3Z)-N,N-Dimethyl-2-oxo-3-(4,5,6,7-tetrahydro-1H-indol-2-ylmethylidene)-2,3-dihydro-1H-indole-5-sulfonamide], the IC50 with MDA-MB-231 cells (DMSO only, no Dasatinib) was found to be 68600 nM; in the assay on MDA-MB-231 cells (co-treated with 500 nM Dasatinib), 20400 nM; with MDA-MB-231 cells (co-treated with 1 μM Dasatinib), 12700 nM.

In general, Kd refers to the equilibrium constant for the complex coming apart. A higher Kd goes with a looser complex. As for `Cn1cnc(-c2nc3nccc(Oc4ccc(NC(=O)c5cnn(-c6ccccc6)c5C(F)(F)F)cc4F)c3s2)c1` [ENG-035, N-(3-fluoro-4-((2-(1-methyl-1H-imidazol-4-yl)thiazolo[4,5-b]pyridin-7-yl)oxy)phenyl)-1-phenyl-5-(trifluoromethyl)-1H-pyrazole-4-carboxamide], binding on RON [2] was characterised by a dissociation constant (Kd) of 43 nM. The “selectivity … (cMet IC50/RON IC50)” value on RON [1] is listed as roughly 2.3 fold.

Regarding `Cc1nc(Nc2ncc(C(=O)Nc3c(C)cccc3Cl)s2)cc(N2CCN(CCO)CC2)n1.O` [Dasatinib, N-(2-chloro-6-methylphenyl)-2-[[6-[4-(2-hydroxyethyl)-1-piperazinyl]-2-methyl-4-pyrimidinyl]amino]-5-thiazole carboxamide monohydrate], the “number of the 506 cell lines more sensitive to Dasatinib than MDA-MB-231 cells” value in the assay with 506 cell lines amounted to 119. Also, the “tumor growth compared to vehicle control” value in assay [3] (SRC inhibitor only, Dasatinib 10 mpk) was “slightly lower compared to the vehicle control”.

As for `CCOc1ccn(-c2ccc(F)cc2)c(=O)c1C(=O)Nc1ccc(Oc2ccnc(N)c2Cl)c(F)c1` [BMS777607, N-[4-[(2-amino-3-chloro-4-pyridinyl)oxy]-3-fluorophenyl]-4-ethoxy-1-(4-fluorophenyl)-2-oxo-3-pyridinecarboxamide], the IC50 against cMet came to 7.3 nM; on RON [1] it was 8.5 nM. Besides, the “selectivity … (cMet IC50/RON IC50)” value on RON [1] (ratio) amounted to 0.9. Besides, in the assay with cancer cell lines, the “potency (GI50) of RON inhibitor in the presence of Dasatinib vs its absence (DMSO)” value is reported as “potency (lower GI50) is greater for the RON inhibitor in the presence of Dasatinib than in its absence”. The “tumor growth compared to vehicle control” value in assay [3] (RON inhibitor only, BMS777607 20 mpk) is reported as “slightly lower compared to the vehicle control”.

Consider `CC1=C(C#N)C(c2ccc3[nH]nc(OCCOC(C)C)c3c2)C(C#N)=C(C)N1` [tool compound 2, 4-(3-(2-isopropoxyethoxy)-1H-indazol-5-yl)-2,6-dimethyl-1,4-dihydropyridine-3,5-dicarbonitrile], for which, on RON [1], the IC50 was determined as 8600 nM.

Consider `Cn1cnc(-c2cc3nccc(Oc4ccc(NC(=O)c5cnn(-c6ccccc6)c5C(F)(F)F)cc4F)c3cn2)c1` [ENG-015, N-(3-fluoro-4-((7-(1-methyl-1H-imidazol-4-yl)-1,6-naphthyridin-4-yl)oxy)phenyl)-1-phenyl-5-(trifluoromethyl)-1H-pyrazole-4-carboxamide], for which the IC50 was found to be 133 nM against cMet and 2.8 nM at RON [1]. The entries for the “selectivity … (cMet IC50/RON IC50)” value on RON [1] and at RON [1] (ratio) were “approximately 50 fold” and greater than 47, respectively. The “IC30 for RON” value against RON [1] (printed as IC30) was found to be 2.8 nM.
